Results from paper PMC12250763, “Synergistic and Antagonistic Mechanisms of Arctium lappa L. Polyphenols on Human Neutrophil Elastase Inhibition: Insights from Molecular Docking and Enzymatic Kinetics” (Molecules, 2025).

Molecular target: T1, human neutrophil elastase (HNE) (Homo sapiens, UniProt P08246)
T1 construct: gene ELANE
T1 sequence (P08246 30-247): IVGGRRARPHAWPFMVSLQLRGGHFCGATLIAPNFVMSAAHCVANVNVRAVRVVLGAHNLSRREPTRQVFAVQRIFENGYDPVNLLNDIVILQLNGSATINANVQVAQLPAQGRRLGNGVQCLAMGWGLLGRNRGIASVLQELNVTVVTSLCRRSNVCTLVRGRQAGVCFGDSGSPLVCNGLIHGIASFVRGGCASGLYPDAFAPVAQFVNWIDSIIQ
Assay: chromogenic elastase assay (MeOSuc-AAPV-pNA, […] nm), dose-response
Format: biochemical

O=C(/C=C/c1ccc(O)c(O)c1)O[C@@H]1C[C@](O)(C(=O)O)C[C@@H](O)[C@H]1O [Cha, chlorogenic acid]
IC50: 203 µM

O=C(/C=C/c1ccc(O)c(O)c1)O[C@@H]1C[C@](O)(C(=O)O)C[C@@H](OC(=O)/C=C/c2ccc(O)c(O)c2)[C@H]1O [Iso A, isochlorogenic acid A]
IC50: 171 µM
